Results reported in ChEMBL document CHEMBL3862032, “Design, Synthesis, and Cytotoxic Evaluation of Novel Tubulysin Analogues as ADC Payloads” (ACS Med Chem Lett, 2016).

Assays:
[1] = Cytotoxicity against human NCI-N87 cells assessed as decrease in cell viability after 4 days by MTS assay; type: functional, cell-based; details: NCI-N87, 96 h
[2] = Cytotoxicity against human MDA-MB-361/DYT2 cells assessed as decrease in cell viability after 4 days by MTS assay; type: functional, cell-based; details: MDA-MB-361, 96 h
[3] = Cytotoxicity against MDR1 deficient human KB cells assessed as decrease in cell viability after 4 days by MTS assay; type: functional, cell-based; details: 96 h
[4] = Cytotoxicity against human KB 8.5 cells expressing MDR1 assessed as decrease in cell viability after 4 days by MTS assay; type: functional, cell-based; details: KB 8.5, 96 h
KB = experiment: Resistance ratio of IC50 for human KB 8.5 cells expressing MDR1 to IC50 for MDR1 deficient human KB cells; type: functional

CC[C@H](C)[C@H](NC(=O)[C@H]1CCCCN1C)C(=O)N(C)[C@H](C[C@@H](OC(C)=O)c1nc(C(=O)N[C@@H](Cc2ccccc2)c2nccs2)cs1)C(C)C
IC50 [1]: 3 nM
IC50 [2]: 0.95 nM
IC50 [3]: 3.57 nM
IC50 [4]: 13.5 nM
Ratio IC50 (KB): 4

CC[C@H](C)[C@H](NC(=O)[C@@]1(C)CCCN1C)C(=O)N(C)[C@H](C[C@@H](OC(C)=O)c1nc(C(=O)N[C@@H](Cc2ccccc2)C[C@H](C)C(=O)OC)cs1)C(C)C
IC50 [1]: 0.89 nM
IC50 [2]: 0.45 nM
IC50 [3]: 1.04 nM
IC50 [4]: 5.52 nM
Ratio IC50 (KB): 5

CC[C@H](C)[C@H](NC(=O)[C@@]1(C)CCCN1C)C(=O)N(C)[C@H](C[C@@H](OC(C)=O)c1nc(C(=O)N[C@H](CNS(C)(=O)=O)Cc2ccccc2)cs1)C(C)C
IC50 [1]: 9.24 nM
IC50 [2]: 4.9 nM
IC50 [3]: 5.32 nM
IC50 [4]: 93.7 nM
Ratio IC50 (KB): 18

CC[C@H](C)[C@H](NC(=O)[C@H]1CCCCN1C)C(=O)N(C)[C@H](C[C@@H](OC(C)=O)c1nc(C(=O)NCCc2cscn2)cs1)C(C)C
IC50 [1]: 9 nM
IC50 [2]: 6.45 nM
IC50 [3]: 3.69 nM
IC50 [4]: 17.5 nM
Ratio IC50 (KB): 5

CC[C@H](C)[C@H](NC(=O)[C@@]1(C)CCCN1C)C(=O)N(C)[C@H](C[C@@H](OC(C)=O)c1nc(C(=O)N[C@@H](Cc2ccccc2)c2nccs2)cs1)C(C)C
IC50 [1]: 29.5 nM
IC50 [2]: 22 nM
IC50 [3]: 37.9 nM
IC50 [4]: 104 nM
Ratio IC50 (KB): 3

CC[C@H](C)[C@H](NC(=O)[C@H]1CCCCN1C)C(=O)N(C)[C@H](C[C@@H](OC(C)=O)c1nc(C(=O)N[C@@H](Cc2ccccc2)CN2CCOCC2)cs1)C(C)C
IC50 [1]: 0.49 nM
IC50 [2]: 0.31 nM
IC50 [3]: 1.02 nM
IC50 [4]: 5.47 nM
Ratio IC50 (KB): 5

CC[C@H](C)[C@H](NC(=O)[C@@]1(C)CCCN1C)C(=O)N(C)[C@H](C[C@@H](OC(C)=O)c1nc(C(=O)NC(CO)Cc2ccccc2)cs1)C(C)C (mixture of isomers)
IC50 [1]: 29.1 nM
IC50 [2]: 16.5 nM
IC50 [3]: 18 nM
IC50 [4]: 69.2 nM
Ratio IC50 (KB): 4

CC[C@H](C)[C@H](NC(=O)[C@@]1(C)CCCN1C)C(=O)N(C)[C@H](C[C@@H](OC(C)=O)c1nc(C(=O)N[C@@H](Cc2ccccc2)[C@@H](O)C(=O)OC)cs1)C(C)C
IC50 [1]: 9.91 nM
IC50 [2]: 6.09 nM
IC50 [3]: 6.28 nM
IC50 [4]: 28.4 nM
Ratio IC50 (KB): 5

CC[C@H](C)[C@H](NC(=O)[C@@]1(C)CCCN1C)C(=O)N(C)[C@H](C[C@@H](OC(C)=O)c1nc(C(=O)N[C@@H](Cc2ccccc2)C[C@H](C)C(=O)O)cs1)C(C)C
IC50 [1]: 0.13 nM
IC50 [2]: 0.07 nM
IC50 [3]: 0.11 nM
IC50 [4]: 1.02 nM
Ratio IC50 (KB): 9

CCNC(=O)O[C@H](C[C@H](C(C)C)N(C)C(=O)[C@@H](NC(=O)[C@@]1(C)CCCN1C)[C@@H](C)CC)c1nc(C(=O)N[C@@H](Cc2ccc(N)cc2)C[C@H](C)C(=O)O)cs1
IC50 [1]: 1.92 nM
IC50 [2]: 1.94 nM
IC50 [3]: 0.77 nM
IC50 [4]: 4.53 nM
Ratio IC50 (KB): 6

CC[C@H](C)[C@H](NC(=O)[C@H]1CCCCN1C)C(=O)N(C)[C@H](C[C@@H](OC(C)=O)c1nc(C(=O)NCCn2nnc3ccccc32)cs1)C(C)C
IC50 [1]: 1.23 nM
IC50 [2]: 0.83 nM
IC50 [3]: 1.44 nM
IC50 [4]: 15.6 nM
Ratio IC50 (KB): 11

CC[C@H](C)[C@H](NC(=O)[C@H]1CCCCN1C)C(=O)N(C)[C@H](C[C@@H](OC(C)=O)c1nc(C(=O)N[C@@H](Cc2ccccc2)[C@@H](O)C(=O)OC)cs1)C(C)C
IC50 [1]: 1 nM
IC50 [2]: 0.27 nM
IC50 [3]: 1.21 nM
IC50 [4]: 13.4 nM
Ratio IC50 (KB): 11

CC[C@H](C)[C@H](NC(=O)[C@@]1(C)CCCN1C)C(=O)N(C)[C@H](C[C@@H](OC(C)=O)c1nc(C(=O)NCCc2cscn2)cs1)C(C)C
IC50 [1]: 61.3 nM
IC50 [2]: 33.2 nM
IC50 [3]: 86.6 nM
IC50 [4]: 198 nM
Ratio IC50 (KB): 2

CC[C@H](C)[C@H](NC(=O)[C@@H]1C[C@@H](O)CN1C)C(=O)N(C)[C@H](C[C@@H](OC(C)=O)c1nc(C(=O)N[C@@H](Cc2ccccc2)C[C@H](C)C(=O)OC)cs1)C(C)C
IC50 [1]: 106 nM
IC50 [2]: 26.9 nM
IC50 [3]: 22.6 nM
IC50 [4]: 788 nM
Ratio IC50 (KB): 35

CC[C@H](C)[C@H](NC(=O)[C@@]1(C)CCCN1C)C(=O)N(C)[C@H](C[C@@H](O)c1nc(C(=O)N[C@@H](Cc2ccc(N)cc2)C[C@H](C)C(=O)O)cs1)C(C)C
IC50 [1]: > 1000 nM
IC50 [2]: > 1000 nM
IC50 [3]: 769 nM
IC50 [4]: > 1000 nM

CC[C@H](C)[C@H](NC(=O)[C@H]1CCCCN1C)C(=O)N(C)[C@H](C[C@@H](OC(C)=O)c1nc(C(=O)N[C@@H](Cc2ccccc2)C[C@H](C)C(=O)O)cs1)C(C)C
IC50 [1]: 0.46 nM
IC50 [2]: 0.13 nM
IC50 [3]: 0.33 nM
IC50 [4]: 1.1 nM
Ratio IC50 (KB): 3

CC[C@H](C)[C@H](NC(=O)[C@@]1(C)CCCN1C)C(=O)N(C)[C@H](C[C@@H](OC(C)=O)c1nc(C(=O)N[C@@H](Cc2ccc(N)cc2)C[C@H](C)C(=O)O)cs1)C(C)C
IC50 [1]: 1.11 nM
IC50 [2]: 0.9 nM
IC50 [3]: 0.5 nM
IC50 [4]: 2.77 nM
Ratio IC50 (KB): 5

CC[C@H](C)[C@H](NC(=O)[C@@]1(C)CCCN1C)C(=O)N(C)[C@H](C[C@@H](OC(C)=O)c1nc(C(=O)NCCn2nnc3ccccc32)cs1)C(C)C
IC50 [1]: 11.8 nM
IC50 [2]: 9.05 nM
IC50 [3]: 11.5 nM
IC50 [4]: 46.3 nM
Ratio IC50 (KB): 4

CC[C@H](C)[C@H](NC(=O)[C@H]1CCCCN1)C(=O)N(C)[C@H](C[C@@H](OC(C)=O)c1nc(C(=O)N[C@@H](Cc2ccccc2)C[C@H](C)C(=O)OC)cs1)C(C)C
IC50 [1]: 7.74 nM
IC50 [2]: 1.68 nM
IC50 [3]: 2.6 nM
IC50 [4]: 141 nM
Ratio IC50 (KB): 54

CC[C@H](C)[C@H](NC(=O)[C@@]1(C)CCCN1)C(=O)N(C)[C@H](C[C@@H](OC(C)=O)c1nc(C(=O)N[C@@H](Cc2ccccc2)C[C@H](C)C(=O)OC)cs1)C(C)C
IC50 [1]: 59 nM
IC50 [2]: 24 nM
IC50 [3]: 18.6 nM
IC50 [4]: 179 nM
Ratio IC50 (KB): 9

CC[C@H](C)[C@H](NC(=O)[C@H]1CCCCN1C)C(=O)N(C)[C@H](C[C@@H](OC(C)=O)c1nc(C(=O)N[C@@H](Cc2ccccc2)C[C@H](C)C(=O)OC)cs1)C(C)C
IC50 [1]: 0.32 nM
IC50 [2]: 0.22 nM
IC50 [3]: 0.22 nM
IC50 [4]: 0.7 nM
Ratio IC50 (KB): 3

CC[C@H](C)[C@H](NC(=O)[C@H]1CCCCN1C)C(=O)N(C)[C@H](C[C@@H](OC(C)=O)c1nc(C(=O)N[C@H](CNS(C)(=O)=O)Cc2ccccc2)cs1)C(C)C
IC50 [1]: 0.47 nM
IC50 [2]: 0.27 nM
IC50 [3]: 0.89 nM
IC50 [4]: 31.7 nM
Ratio IC50 (KB): 36

CC[C@H](C)[C@H](NC(=O)[C@H]1CCCN1C)C(=O)N(C)[C@H](C[C@@H](OC(C)=O)c1nc(C(=O)N[C@@H](Cc2ccccc2)C[C@H](C)C(=O)OC)cs1)C(C)C
IC50 [1]: 2.88 nM
IC50 [2]: 0.67 nM
IC50 [3]: 1.26 nM
IC50 [4]: 7.88 nM
Ratio IC50 (KB): 6

CC[C@H](C)[C@H](NC(=O)C(C)(C)N(C)C)C(=O)N(C)[C@H](C[C@@H](OC(C)=O)c1nc(C(=O)N[C@@H](Cc2ccccc2)C[C@H](C)C(=O)OC)cs1)C(C)C
IC50 [1]: 9.76 nM
IC50 [2]: 3.37 nM
IC50 [3]: 4.68 nM
IC50 [4]: 53.9 nM
Ratio IC50 (KB): 11

CC[C@H](C)[C@H](NC(=O)[C@@]1(C)CCCN1C)C(=O)N(C)[C@H](C[C@@H](OC(C)=O)c1nc(C(=O)N[C@@H](Cc2ccccc2)C(O)c2nccs2)cs1)C(C)C (mixture of isomers)
IC50 [1]: 11.1 nM
IC50 [2]: 6.39 nM
IC50 [3]: 8.64 nM
IC50 [4]: 39.4 nM
Ratio IC50 (KB): 5

CC[C@H](C)[C@H](NC(=O)[C@H](NC)C(C)C)C(=O)N(C)[C@H](C[C@@H](OC(C)=O)c1nc(C(=O)N[C@@H](Cc2ccccc2)C[C@H](C)C(=O)OC)cs1)C(C)C
IC50 [1]: 0.89 nM
IC50 [2]: 1.06 nM
IC50 [3]: 1.76 nM
IC50 [4]: 33.6 nM
Ratio IC50 (KB): 19

CC[C@H](C)[C@H](NC(=O)[C@H]1CCCCN1C)C(=O)N(C)[C@H](C[C@@H](OC(C)=O)c1nc(C(=O)N[C@@H](Cc2ccccc2)C(=O)N2CCCCC2)cs1)C(C)C
IC50 [1]: 6.75 nM
IC50 [2]: 6.32 nM
IC50 [3]: 3.71 nM
IC50 [4]: 20.1 nM
Ratio IC50 (KB): 5
